Results taken from US9012439B2, “Use of electrophilic compounds for inducing platelet production or maintaining platelet function” (University of Rochester, priority 2007, dated 2015).

Legend:
Meg-01 cells [1] = test: Platelet production from Meg-01 cells (flow cytometry); format: cell-based, human; settings: for platelet production: Meg-01 cells, 10 μM, 24 h
Method: Meg-01 and M07e cells were purchased from the American Type Culture Collection (Rockville, Md.) and Dami cells were a generous gift from Dr. Patricia J. Simpson-Haidaris (University of Rochester). All cells were cultured in RPMI-1640 tissue culture medium (Invitrogen) supplemented with 5% fetal bovine serum (FBS; Invitrogen), 10 mM HEPES (N-2-hydroxyethylpiperazine-N′-2-ethanesulfonic acid; Sigma), 2 mM L-glutamine (Invitrogen), 4.5 g/L glucose (Invitrogen), and 50 μg/mL gentamicin (Invitrogen). M07e cells were also supplemented with 100 ng/mL of granulocyte monocyte-colony stimulating factor (GM-CSF, R&D Systems). All treatments were performed in normal growth media. Dimethyl sulfoxide (DMSO) was used as a vehicle (control) in the experiments described below.
Platelets were isolated from megakaryocytes by centrifugation at 150 xg for 10 min. Supernatants underwent sequential centrifugation (500 xg for 10 min and 1000×g for 10 min). The remaining platelet pellet was fixed then permeabilized with a CD61 or CD41 antibody. 7-AAD (BD Pharmingen) was added for 10 min before analyzing the cells by flow cytometry. Platelets were identified using three well-described parameters (Patel et al., “The Biogenesis of Platelets from Megakaryocyte Proplatelets,” J Clin Invest 115:3348-3354 (2005); Breton-Gorius et al., “Expression of Platelet Proteins During the In Vitro and In Vivo Differentiation of Megakaryocytes and Morphological Aspects of Their Maturation,” Semin Hematol 23:43-67 (1986); Ogura et al., “Establishment of a Novel Human Megakaryoblastic Leukemia Cell Line, MEG-01, With Positive Philadelphia Chromosome,” Blood 66:1384-1392 (1985) and Franks et al., “A Fluorescence Microscopy Method for Quantifying Levels of Prostaglandin Endoperoxide H Synthase-1 and CD-41 in MEG-01 Cells,” Biol Proced Online 3:54-63 (2001), each of which is hereby incorporated by reference in its entirety), size (using normal human platelets as a control), presence of CD61 or CD41 and lack of DNA as determined by the absence of 7-AAD staining Ten thousand platelet events were collected and platelets were quantified by rate (platelet events/second) (Chung et al., “Platelet Activation in Acute, Decompensated Congestive Heart Failure,” Thromb Res 120:709-713 (2007), which is hereby incorporated by reference in its entirety.
A 19 by target sequence was selected to knock down PPARγ. PPARγ was cloned downstream of the RNA polymerase III U6 promoter and subcloned into a FG12 lentiviral vector which expresses green fluorescent protein (GFP) under the Ubiquitin C promoter. HEK 293 cells expressing this siRNA PPARγ had reduced PPARγ protein levels. To make the lentivirus, HEK 293 cells were co-transfected with 3 plasmids: the envelope vector (CMV-VSVG), the transfer vector (FG12-shRNAPPAR), and the packaging construct (pCMVΔ89.2 (gag/pol proteins)). Viral supernatants were collected every 8 h for 2 days and concentrated by ultracentrifugation at 50,000×g for 2 h at 4° C. using a Beckman SW 28 rotor. Viral titers were determined by infection of HeLa cells with serial dilutions of the viral stocks. Meg-01 cells were infected at a multiplicity of infection (MOI) of 20. After 48 h, approximately 56% of the PPARγ siRNA cells were transduced as determined by flow cytometry. The GFP positive (+) cells were then sorted by FACS and grown in RPMI with 5% FBS.

Meg-01 cells [2] = test: Reactive oxygen species production in Meg-01 cells (carboxy-H2DCFDA, MitoSOX Red); format: cell-based, human; settings: for percentage of Meg-01 cells that produce mitochondrial superoxide (MitoSOX Red): 10 μM
Method: Ten μM carboxy-H2DCFDA was added to cells for 20 min at RT. The cells were washed and immediately analyzed by flow cytometry. Five μM of MitoSOX Red dye in HBSS containing Mg^2+ and Ca^2+ was added to the cells for 15 min at 37° C. The cells were washed in HBSS and analyzed by flow cytometry.

Q: How did the platelet production (Meg-01 cells [1]) turn out when CCCCC[C@H](O)/C=C/[C@H]1[C@H](O)CC(=O)[C@@H]1C/C=C\CCCC(=O)O [PGE2] was run?
A: failed to enhance platelet production

Q: O=C(Nc1ccccc1)c1cc([N+](=O)[O-])ccc1Cl [GW9662] was tested. Which “blocking of 15d-PGJ2-enhanced platelet production” value (Meg-01 cells [1]; Meg-01 cells pre-treated 2 h with 100 nM GW9662, then 15d-PGJ2 24 h) did it give?
A: not blocked

Q: For CCCCC[C@H](O)/C=C/[C@H]1C(=O)C=C[C@@H]1C/C=C\CCCC(=O)O [PGJ2], which platelet production (Meg-01 cells [1]) is on record?
A: enhanced Meg-01 platelet production

Q: What about the “percentage of Meg-01 cells that produce mitochondrial superoxide (MitoSOX Red)” value (Meg-01 cells [2]; 1 h) of the same molecule?
A: 33%

Q: And the “percentage of Meg-01 cells that produce mitochondrial superoxide (MitoSOX Red)” value (Meg-01 cells [2]; 6 h)?
A: 25%

Q: And the “percentage of Meg-01 cells that express ROS (carboxy-H2DCFDA)” value (Meg-01 cells [2]; 1 h)?
A: 65%

Q: What about the “percentage of Meg-01 cells that express ROS (carboxy-H2DCFDA)” value (Meg-01 cells [2]; 6 h) of the same molecule?
A: 76%

Q: CCCCC[C@H](O)/C=C/[C@@H]1[C@H]2C/C(=C/CCCC(=O)O)O[C@H]2C[C@H]1O [PGI2] was tested. Which platelet production (Meg-01 cells [1]) did it give?
A: failed to enhance platelet production

Q: CCCCC[C@H](O)/C=C/[C@@H]1[C@@H](C/C=C\CCCC(=O)O)[C@@H](O)C[C@H]1O [PGF2α] was tested. Which platelet production (Meg-01 cells [1]) did it give?
A: failed to enhance platelet production
